The record followed here is ChEMBL document CHEMBL4368915, “Synthesis and Biological Investigation of Phenothiazine-Based Benzhydroxamic Acids as Selective Histone Deacetylase 6 Inhibitors” (J Med Chem, 2019).

Data set [1] is described as follows: Stability in human liver microsomes assessed as compound remaining at 2 uM measured up to 20 mins by LC-MS/MS analysis. The data set is classed as ADME, Microsome. (In general: Liver microsomes are a subcellular fraction often used to study metabolism.)
In data set [2] the test system is T-24. In words: Synergistic potentiation of Bortezomib-induced antiproliferative activity against human T24 cells assessed as effect on cell index, at 1 uM incubated for 24 hrs by cell impedance based assay. The format is functional.
The next data set concerns the target T1, Histone deacetylase 8 (Homo sapiens, UniProt Q9BY41).
T1 sequence (Q9BY41 whole entry): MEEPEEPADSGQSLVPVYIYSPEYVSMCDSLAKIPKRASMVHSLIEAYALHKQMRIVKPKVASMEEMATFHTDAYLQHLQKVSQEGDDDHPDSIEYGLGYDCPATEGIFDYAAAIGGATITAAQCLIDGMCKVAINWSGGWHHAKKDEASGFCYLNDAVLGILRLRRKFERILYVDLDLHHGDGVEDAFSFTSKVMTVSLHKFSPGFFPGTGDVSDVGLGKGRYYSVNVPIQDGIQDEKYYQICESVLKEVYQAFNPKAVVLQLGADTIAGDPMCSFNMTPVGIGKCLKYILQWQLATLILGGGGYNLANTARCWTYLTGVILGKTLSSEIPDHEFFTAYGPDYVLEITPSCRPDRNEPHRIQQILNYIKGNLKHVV

The target of the next data set is CYP2D6 (Homo sapiens, UniProt P10635). In words: Inhibition of human CYP2D6 in human liver microsomes at 10 uM relative to control. The data set is classed as ADME.
CYP2D6, sequence (P10635 whole entry): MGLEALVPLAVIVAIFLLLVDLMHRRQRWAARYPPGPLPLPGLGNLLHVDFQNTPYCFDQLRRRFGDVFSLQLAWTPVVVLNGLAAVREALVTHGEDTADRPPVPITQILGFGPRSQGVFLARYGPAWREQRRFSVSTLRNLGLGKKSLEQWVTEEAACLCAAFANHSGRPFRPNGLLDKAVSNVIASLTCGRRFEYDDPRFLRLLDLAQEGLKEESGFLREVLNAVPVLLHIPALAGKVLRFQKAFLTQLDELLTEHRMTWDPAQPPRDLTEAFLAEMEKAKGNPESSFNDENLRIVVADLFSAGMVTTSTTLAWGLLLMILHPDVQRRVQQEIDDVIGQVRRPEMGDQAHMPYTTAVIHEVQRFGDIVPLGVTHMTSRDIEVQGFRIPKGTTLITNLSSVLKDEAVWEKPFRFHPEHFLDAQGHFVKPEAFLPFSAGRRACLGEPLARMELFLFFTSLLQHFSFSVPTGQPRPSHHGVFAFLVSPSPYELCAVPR
A further data set concerns MDA-MB-231. Description: Antiproliferative activity against human MDA-MB-231 cells assessed as inhibition of cell proliferation at 10 to 100 uM after 72 hrs by CellTiter blue-reagent based assay. The data set is classed as functional. On the technique in general: Alamar Blue is a resazurin reagent that responds to reducing activity.
The nature of data set [3]: Half life in human liver microsomes at 2 uM by LC-MS/MS analysis. The format is ADME, Microsome.
The test system of a further data set is HepaRG. Description: Cytotoxicity against human HepaRG cells assessed as cell viability at 100 uM after 24 hrs by CellTiter blue-reagent based assay relative to control. The settings on record: heparg, 24 h, 100 µM.
In another data set the target is CYP2C9 (Homo sapiens, UniProt P11712). In words: Inhibition of human CYP2C9 in human liver microsomes at 10 uM relative to control. The format is ADME.
CYP2C9, sequence (P11712 whole entry): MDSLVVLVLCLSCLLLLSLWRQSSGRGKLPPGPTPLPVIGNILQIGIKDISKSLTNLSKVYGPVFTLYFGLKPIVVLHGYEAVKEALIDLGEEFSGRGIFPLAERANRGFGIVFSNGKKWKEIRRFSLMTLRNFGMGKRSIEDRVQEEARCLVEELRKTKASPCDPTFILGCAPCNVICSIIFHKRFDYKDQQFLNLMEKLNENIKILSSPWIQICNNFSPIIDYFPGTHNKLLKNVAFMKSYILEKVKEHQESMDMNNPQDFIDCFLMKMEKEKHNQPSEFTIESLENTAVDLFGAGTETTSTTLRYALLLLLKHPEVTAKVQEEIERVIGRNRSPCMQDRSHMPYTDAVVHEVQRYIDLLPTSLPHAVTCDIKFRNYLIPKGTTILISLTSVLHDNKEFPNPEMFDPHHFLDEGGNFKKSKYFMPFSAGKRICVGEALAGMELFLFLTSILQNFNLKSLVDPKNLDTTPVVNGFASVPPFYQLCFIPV
The next data set has as its target T2, CYP1A2 (Homo sapiens, UniProt P05177).
T2 sequence (P05177 whole entry): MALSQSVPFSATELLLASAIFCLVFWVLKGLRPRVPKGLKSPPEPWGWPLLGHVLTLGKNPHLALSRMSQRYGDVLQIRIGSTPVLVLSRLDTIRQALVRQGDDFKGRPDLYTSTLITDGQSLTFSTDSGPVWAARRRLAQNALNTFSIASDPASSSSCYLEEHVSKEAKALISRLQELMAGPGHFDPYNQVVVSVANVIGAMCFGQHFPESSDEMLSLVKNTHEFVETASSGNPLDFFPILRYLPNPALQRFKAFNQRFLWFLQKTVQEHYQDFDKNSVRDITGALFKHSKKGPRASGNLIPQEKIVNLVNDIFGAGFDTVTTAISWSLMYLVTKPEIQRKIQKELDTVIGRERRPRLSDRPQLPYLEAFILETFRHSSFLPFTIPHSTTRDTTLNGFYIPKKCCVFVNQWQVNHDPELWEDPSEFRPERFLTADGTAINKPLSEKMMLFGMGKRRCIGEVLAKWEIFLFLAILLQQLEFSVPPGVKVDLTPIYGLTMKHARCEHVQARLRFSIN
Description: Inhibition of human CYP1A2 in human liver microsomes at 10 uM relative to control. The format is ADME.

A short description of data set [4]: Intrinsic clearance in human liver microsomes at 2 uM by LC-MS/MS analysis. The format is ADME, Microsome.
In a further data set the target is CYP2C19 (Homo sapiens, UniProt P33261). Description: Inhibition of human CYP2C19 in human liver microsomes at 10 uM relative to control. The data set is classed as ADME.
CYP2C19, sequence (P33261 whole entry): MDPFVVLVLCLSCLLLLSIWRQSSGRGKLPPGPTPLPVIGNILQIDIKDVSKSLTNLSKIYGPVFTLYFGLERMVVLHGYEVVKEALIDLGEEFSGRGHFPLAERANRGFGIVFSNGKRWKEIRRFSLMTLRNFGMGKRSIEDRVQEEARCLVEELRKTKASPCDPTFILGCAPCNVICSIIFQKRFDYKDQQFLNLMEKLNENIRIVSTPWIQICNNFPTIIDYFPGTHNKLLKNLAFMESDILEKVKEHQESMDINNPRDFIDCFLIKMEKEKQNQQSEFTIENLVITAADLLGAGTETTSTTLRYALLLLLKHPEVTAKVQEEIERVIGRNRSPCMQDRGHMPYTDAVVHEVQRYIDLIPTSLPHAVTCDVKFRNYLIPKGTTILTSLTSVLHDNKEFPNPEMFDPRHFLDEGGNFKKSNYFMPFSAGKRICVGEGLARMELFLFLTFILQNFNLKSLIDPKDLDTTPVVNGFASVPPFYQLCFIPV
Data set [5] relates to T-24. Description: Antiproliferative activity against human T24 cells assessed as inhibition of cell proliferation at 10 to 100 uM after 72 hrs by CellTiter blue-reagent based assay. The format is functional.
Data set [6] deals with Histone deacetylase 4 (Homo sapiens) (UniProt P56524). Description: Inhibition of recombinant N-terminal GST/His-tagged human HDAC4 (627 to 1084 residues) expressed in baculovirus expression system at 10 uM using fluorogenic ZMTFAL as substrate incubated for 90 mins by fluorescence assay relative to control.
Histone deacetylase 4 (Homo sapiens), sequence (P56524 whole entry, the tested form may be a part): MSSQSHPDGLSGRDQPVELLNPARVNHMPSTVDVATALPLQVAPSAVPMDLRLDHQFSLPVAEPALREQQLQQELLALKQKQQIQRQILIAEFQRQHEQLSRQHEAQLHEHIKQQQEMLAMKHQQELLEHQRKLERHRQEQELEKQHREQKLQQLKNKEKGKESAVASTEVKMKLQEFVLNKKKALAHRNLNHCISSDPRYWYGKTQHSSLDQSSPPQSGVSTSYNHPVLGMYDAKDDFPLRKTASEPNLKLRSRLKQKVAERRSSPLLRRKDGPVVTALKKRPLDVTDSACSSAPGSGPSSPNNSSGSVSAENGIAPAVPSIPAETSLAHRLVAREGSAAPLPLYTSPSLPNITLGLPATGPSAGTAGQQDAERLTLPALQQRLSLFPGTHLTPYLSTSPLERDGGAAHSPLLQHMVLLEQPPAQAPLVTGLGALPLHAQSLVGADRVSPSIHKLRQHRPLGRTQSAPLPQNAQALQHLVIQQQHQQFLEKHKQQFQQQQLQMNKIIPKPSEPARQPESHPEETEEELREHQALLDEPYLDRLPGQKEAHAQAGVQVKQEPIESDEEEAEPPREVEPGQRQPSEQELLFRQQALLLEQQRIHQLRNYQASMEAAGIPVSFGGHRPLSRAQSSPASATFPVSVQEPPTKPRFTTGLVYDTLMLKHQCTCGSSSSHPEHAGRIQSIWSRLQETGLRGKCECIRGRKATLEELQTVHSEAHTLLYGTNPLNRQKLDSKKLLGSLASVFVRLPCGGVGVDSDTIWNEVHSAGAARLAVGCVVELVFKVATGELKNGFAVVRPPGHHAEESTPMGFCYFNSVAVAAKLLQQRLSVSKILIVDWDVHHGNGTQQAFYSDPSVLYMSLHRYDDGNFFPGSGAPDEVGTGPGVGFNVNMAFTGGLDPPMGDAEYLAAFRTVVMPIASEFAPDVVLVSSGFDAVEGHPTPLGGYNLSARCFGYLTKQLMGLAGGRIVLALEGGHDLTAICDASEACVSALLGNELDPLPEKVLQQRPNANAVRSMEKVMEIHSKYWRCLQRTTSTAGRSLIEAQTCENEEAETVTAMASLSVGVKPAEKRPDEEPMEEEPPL
In the next data set the test system is Huh-7. In words: Antiproliferative activity against human HuH7 cells assessed as inhibition of cell proliferation at 10 to 100 uM after 72 hrs by CellTiter blue-reagent based assay. The format is functional.
The next data set concerns the target Histone deacetylase 1 (Homo sapiens, UniProt Q13547).

pIC50: −log10 of the molar value. The source made the active and inactive calls. The rule behind the calls is not given here.

Histone deacetylase 1, sequence (Q13547 whole entry): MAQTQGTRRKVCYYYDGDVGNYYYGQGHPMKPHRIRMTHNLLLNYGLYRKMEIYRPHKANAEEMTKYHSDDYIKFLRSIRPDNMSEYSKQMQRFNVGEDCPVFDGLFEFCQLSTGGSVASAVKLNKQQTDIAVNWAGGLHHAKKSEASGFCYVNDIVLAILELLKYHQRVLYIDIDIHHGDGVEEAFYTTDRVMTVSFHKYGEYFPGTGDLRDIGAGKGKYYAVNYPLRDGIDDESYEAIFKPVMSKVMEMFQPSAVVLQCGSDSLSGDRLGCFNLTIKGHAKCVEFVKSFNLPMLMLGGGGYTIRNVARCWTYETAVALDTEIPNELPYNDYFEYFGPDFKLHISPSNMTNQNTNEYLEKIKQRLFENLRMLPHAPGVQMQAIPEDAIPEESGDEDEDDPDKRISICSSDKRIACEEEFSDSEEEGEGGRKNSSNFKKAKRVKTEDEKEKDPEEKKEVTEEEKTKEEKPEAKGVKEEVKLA

For `O=C(NO)c1ccc(CN2c3ccccc3Sc3cccnc32)cc1`, the Stability result in data set [1] is reported as “Stable”. Besides, the outcome in the data set on T-24 [2] was inactive. For the same compound, the pIC50 against Histone deacetylase 8 is 5.51; against Histone deacetylase 1, 5.57. In addition, the inhibition at 10 µM worked out at 12% at CYP2D6, 3.4% against CYP2C9, 15.2% at CYP1A2 and 27.7% at CYP2C19. Besides, the inhibition entry in the data set with MDA-MB-231, in the data set on T-24 [5] and in the data set on Huh-7 was “Active” throughout. Further, the t1/2 in data set [3] worked out at 2.47 h. For the same compound, the Activity entry in the data set on HepaRG is on record as “Non-Toxic”. This compound also came in with a CLH in data set [4] of 11 µL/min/mg. Besides, in data set [6], the inhibition was less than 20%.

The pIC50 is −log10 of the IC50, conventionally taken in molar units. Broadly, the inhibition is the relative decrease from the control value, in per cent.
